Earlier results on three compounds are cited in patent US10751019B2, “Determining a brain condition using early time frame PET image analysis” (ADM DIAGNOSTICS, LLC, priority 2015, dated 2020).

Molecules are shown by their SMILES.

The conditions of this series: PET tracer in brain, time after tracer injection; varies with tracer, region of accumulation and target load.
For the compound `[11CH3]Nc1ccc(-c2nc3ccc(O)cc3s2)cc1` [11C-PiB], the “time to reach equilibrium” value is “about 45 minutes”.

On to `CNc1ccc(/C=C/c2ccc(OCCOCCOCCF)nc2)cc1` [florbetapir], for which the “time to reach equilibrium” value was 40 to 45 min. Consider `CNc1ccc(-c2nc3ccc(O)cc3s2)cc1F` [flutemetamol], for which the “time to reach equilibrium” value is given as “about 80 minutes”.
